Legend:
Assay in all cases: KINOMEscan Max
Format in all cases: binding
PRKCH = biological target: T1, PRKCH (Homo sapiens, UniProt P24723)
T1 construct: DNA tag (qPCR read-out); purchased Ambit Kinomescan
How it was run: (§1)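 Compound displacement of DNA-tagged kinase from immobilized active-site ligand; qPCR of tag as read-out.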

CASK = CASK (Homo sapiens, UniProt O14936)
How it was run: as §1

MKK7 = MKK7 (Homo sapiens, UniProt O14733); conditions: 1 μM
How it was run: as §1

SLK = SLK (Homo sapiens, UniProt Q9H2G2)
How it was run: as §1

PIK3CA(E545A) = biological target: T2, PIK3CA(E545A) (Homo sapiens, UniProt P42336, E545A)
T2 construct: purchased Ambit Kinomescan (contract screening)
How it was run: as §1

PRKCD = biological target: T3, PRKCD (Homo sapiens, UniProt Q05655)
T3 construct: DNA tag (qPCR read-out)
How it was run: as §1

MKNK2 = biological target: T4, MKNK2 (Homo sapiens, UniProt Q9HBH9)
T4 construct: DNA tag (qPCR read-out)
How it was run: as §1

KIT(L576P) = biological target: T5, KIT(L576P) (Homo sapiens, UniProt P10721, L576P)
T5 construct: purchased Ambit (KINOMEscan Max service)
How it was run: as §1

PIK3CB = biological target: T6, PIK3CB (Homo sapiens, UniProt P42338)
T6 construct: DNA tag (qPCR read-out)
How it was run: as §1

PIP5K1C = PIP5K1C (Homo sapiens, UniProt O60331); conditions: 1 μM
How it was run: as §1

CSNK1A1 = biological target: T7, CSNK1A1 (Homo sapiens, UniProt P48729)
T7 construct: DNA tag (qPCR read-out)
How it was run: as §1

MLCK = MLCK (Homo sapiens, UniProt Q32MK0)
How it was run: as §1

MEK2 = MEK2 (Homo sapiens, UniProt P36507)
How it was run: as §1

PAK3 = PAK3 (Homo sapiens, UniProt O75914)
How it was run: as §1

GSK3A = biological target: T8, GSK3A (Homo sapiens, UniProt P49840)
T8 construct: purchased Ambit Kinomescan (contract panel, KINOMEscan Max)
How it was run: as §1

NEK5 = NEK5 (Homo sapiens, UniProt Q6P3R8)
How it was run: as §1

TLK2 = biological target: T9, TLK2 (Homo sapiens, UniProt Q86UE8)
T9 construct: purchased Ambit Kinomescan (contract screening service)
How it was run: as §1

MAP3K2 = biological target: T10, MAP3K2 (Homo sapiens, UniProt Q9Y2U5)
T10 construct: purchased Ambit Kinomescan (contract panel)
How it was run: as §1

ACVR2B = biological target: T11, ACVR2B (Homo sapiens, UniProt Q13705); conditions: 1 μM
T11 construct: DNA tag (qPCR label); purchased Ambit Kinomescan (contract screening)
How it was run: as §1

SgK110 = biological target: T12, SgK110 (Homo sapiens, UniProt P0C264)
T12 construct: DNA tag (qPCR read-out)
How it was run: as §1

MST1R = MST1R (Homo sapiens, UniProt Q04912)
How it was run: as §1

CAMK2G = biological target: T13, CAMK2G (Homo sapiens, UniProt Q13555)
T13 construct: DNA tag (qPCR label); purchased Ambit Kinomescan (contract screening)
How it was run: as §1

EPHB3 = biological target: T14, EPHB3 (Homo sapiens, UniProt P54753)
T14 construct: DNA tag (qPCR read-out)
How it was run: as §1

[1] = biological target: T15, RSK2(Kin.Dom.1-N-terminal) (Homo sapiens, UniProt P51812)
T15 construct: RSK2(Kin.Dom.1-N-terminal); DNA tag (qPCR read-out)
How it was run: as §1

AAK1 = biological target: T16, AAK1 (Homo sapiens, UniProt Q2M2I8)
T16 construct: purchased Ambit Kinomescan (contract screening)
How it was run: as §1

CSNK1G2 = biological target: T17, CSNK1G2 (Homo sapiens, UniProt P78368); conditions: 1 μM
T17 construct: purchased Ambit (KINOMEscan Max panel service)
How it was run: as §1

ASK1 = biological target: T18, ASK1 (Homo sapiens, UniProt Q99683)
T18 construct: DNA tag (qPCR label); purchased Ambit Kinomescan (contract screening)
How it was run: as §1

CLK3 = biological target: T19, CLK3 (Homo sapiens, UniProt P49761)
T19 construct: purchased Ambit (KINOMEscan Max service)
How it was run: as §1

NEK9 = NEK9 (Homo sapiens, UniProt Q8TD19)
How it was run: as §1

EGFR(L858R) = EGFR(L858R) (Homo sapiens, UniProt P00533, L858R); conditions: 1 μM
How it was run: as §1

PFTAIRE2 = PFTAIRE2 (Homo sapiens, UniProt Q96Q40)
How it was run: as §1

ULK1 = biological target: T20, ULK1 (Homo sapiens, UniProt O75385); conditions: 1 μM
T20 construct: DNA tag (qPCR read-out)
How it was run: as §1

DCAMKL2 = biological target: T21, DCAMKL2 (Homo sapiens, UniProt Q8N568)
T21 construct: purchased Ambit (KINOMEscan Max panel service)
How it was run: as §1

MST4 = biological target: T22, MST4 (Homo sapiens, UniProt Q9P289)
T22 construct: DNA tag (qPCR read-out)
How it was run: as §1

T6 sequence (P42338 whole entry): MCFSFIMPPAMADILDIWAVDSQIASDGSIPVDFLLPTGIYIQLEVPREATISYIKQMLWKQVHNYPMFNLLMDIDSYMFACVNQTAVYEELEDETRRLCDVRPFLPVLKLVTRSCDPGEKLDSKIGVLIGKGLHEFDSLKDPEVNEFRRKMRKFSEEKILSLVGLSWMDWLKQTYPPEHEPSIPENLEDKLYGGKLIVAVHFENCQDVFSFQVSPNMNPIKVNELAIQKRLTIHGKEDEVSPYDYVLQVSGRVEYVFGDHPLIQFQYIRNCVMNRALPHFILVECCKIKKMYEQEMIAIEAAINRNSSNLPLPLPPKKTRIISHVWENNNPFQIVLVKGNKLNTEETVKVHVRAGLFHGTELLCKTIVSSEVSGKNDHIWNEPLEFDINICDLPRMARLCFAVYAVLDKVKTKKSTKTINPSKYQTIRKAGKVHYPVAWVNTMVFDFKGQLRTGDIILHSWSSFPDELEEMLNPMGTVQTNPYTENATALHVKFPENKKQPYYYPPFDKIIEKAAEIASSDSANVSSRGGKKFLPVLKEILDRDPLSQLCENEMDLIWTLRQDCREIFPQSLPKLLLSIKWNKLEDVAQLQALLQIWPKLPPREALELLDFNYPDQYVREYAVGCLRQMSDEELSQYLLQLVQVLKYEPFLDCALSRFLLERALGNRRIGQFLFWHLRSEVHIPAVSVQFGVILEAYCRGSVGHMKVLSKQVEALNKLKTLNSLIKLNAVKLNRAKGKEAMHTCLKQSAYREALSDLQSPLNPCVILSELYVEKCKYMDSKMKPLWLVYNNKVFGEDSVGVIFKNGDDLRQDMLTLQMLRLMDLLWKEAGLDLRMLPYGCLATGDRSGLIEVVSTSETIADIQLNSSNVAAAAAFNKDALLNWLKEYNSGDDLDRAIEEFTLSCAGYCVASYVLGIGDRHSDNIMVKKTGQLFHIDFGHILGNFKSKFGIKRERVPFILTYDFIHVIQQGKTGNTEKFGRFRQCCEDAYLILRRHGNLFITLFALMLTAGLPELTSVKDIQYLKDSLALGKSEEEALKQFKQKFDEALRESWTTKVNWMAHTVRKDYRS
MEK2, sequence (P36507 whole entry): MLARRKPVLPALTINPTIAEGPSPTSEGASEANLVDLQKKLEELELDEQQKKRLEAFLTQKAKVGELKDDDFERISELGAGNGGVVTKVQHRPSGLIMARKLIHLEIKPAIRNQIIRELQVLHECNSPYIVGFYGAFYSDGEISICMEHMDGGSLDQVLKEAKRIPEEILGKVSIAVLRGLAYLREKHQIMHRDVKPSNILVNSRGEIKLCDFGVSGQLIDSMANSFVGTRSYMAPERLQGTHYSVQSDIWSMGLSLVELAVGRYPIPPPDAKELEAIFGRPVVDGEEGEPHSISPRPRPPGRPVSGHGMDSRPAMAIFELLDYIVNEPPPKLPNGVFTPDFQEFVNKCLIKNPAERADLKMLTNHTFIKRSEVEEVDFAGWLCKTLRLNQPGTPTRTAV
PAK3, sequence (O75914 whole entry): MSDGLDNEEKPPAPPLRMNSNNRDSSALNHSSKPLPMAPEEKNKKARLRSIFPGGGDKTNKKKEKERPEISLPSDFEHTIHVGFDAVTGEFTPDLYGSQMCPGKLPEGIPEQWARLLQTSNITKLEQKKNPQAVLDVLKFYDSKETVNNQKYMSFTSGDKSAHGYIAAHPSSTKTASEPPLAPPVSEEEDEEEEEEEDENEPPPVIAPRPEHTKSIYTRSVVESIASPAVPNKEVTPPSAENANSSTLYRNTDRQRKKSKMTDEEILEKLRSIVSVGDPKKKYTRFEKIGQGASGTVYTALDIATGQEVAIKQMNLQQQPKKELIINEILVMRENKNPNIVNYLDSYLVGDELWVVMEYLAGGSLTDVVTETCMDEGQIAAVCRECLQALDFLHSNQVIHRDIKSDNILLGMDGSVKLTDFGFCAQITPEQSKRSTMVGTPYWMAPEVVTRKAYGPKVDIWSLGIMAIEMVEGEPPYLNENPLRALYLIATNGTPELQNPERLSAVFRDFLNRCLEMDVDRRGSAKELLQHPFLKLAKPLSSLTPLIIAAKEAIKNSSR
T17 sequence (P78368 whole entry): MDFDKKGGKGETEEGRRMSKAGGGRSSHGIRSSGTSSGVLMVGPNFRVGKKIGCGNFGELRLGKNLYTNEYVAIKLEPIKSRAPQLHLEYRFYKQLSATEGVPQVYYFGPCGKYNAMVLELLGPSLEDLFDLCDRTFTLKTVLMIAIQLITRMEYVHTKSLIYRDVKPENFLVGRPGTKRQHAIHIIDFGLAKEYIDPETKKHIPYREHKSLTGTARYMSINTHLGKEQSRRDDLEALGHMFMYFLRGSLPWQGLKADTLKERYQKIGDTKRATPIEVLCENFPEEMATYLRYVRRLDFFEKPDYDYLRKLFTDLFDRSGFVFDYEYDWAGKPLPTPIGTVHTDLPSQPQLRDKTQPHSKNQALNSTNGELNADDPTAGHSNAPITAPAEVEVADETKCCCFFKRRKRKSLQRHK
EGFR(L858R), sequence (P00533 25-1210 L858R): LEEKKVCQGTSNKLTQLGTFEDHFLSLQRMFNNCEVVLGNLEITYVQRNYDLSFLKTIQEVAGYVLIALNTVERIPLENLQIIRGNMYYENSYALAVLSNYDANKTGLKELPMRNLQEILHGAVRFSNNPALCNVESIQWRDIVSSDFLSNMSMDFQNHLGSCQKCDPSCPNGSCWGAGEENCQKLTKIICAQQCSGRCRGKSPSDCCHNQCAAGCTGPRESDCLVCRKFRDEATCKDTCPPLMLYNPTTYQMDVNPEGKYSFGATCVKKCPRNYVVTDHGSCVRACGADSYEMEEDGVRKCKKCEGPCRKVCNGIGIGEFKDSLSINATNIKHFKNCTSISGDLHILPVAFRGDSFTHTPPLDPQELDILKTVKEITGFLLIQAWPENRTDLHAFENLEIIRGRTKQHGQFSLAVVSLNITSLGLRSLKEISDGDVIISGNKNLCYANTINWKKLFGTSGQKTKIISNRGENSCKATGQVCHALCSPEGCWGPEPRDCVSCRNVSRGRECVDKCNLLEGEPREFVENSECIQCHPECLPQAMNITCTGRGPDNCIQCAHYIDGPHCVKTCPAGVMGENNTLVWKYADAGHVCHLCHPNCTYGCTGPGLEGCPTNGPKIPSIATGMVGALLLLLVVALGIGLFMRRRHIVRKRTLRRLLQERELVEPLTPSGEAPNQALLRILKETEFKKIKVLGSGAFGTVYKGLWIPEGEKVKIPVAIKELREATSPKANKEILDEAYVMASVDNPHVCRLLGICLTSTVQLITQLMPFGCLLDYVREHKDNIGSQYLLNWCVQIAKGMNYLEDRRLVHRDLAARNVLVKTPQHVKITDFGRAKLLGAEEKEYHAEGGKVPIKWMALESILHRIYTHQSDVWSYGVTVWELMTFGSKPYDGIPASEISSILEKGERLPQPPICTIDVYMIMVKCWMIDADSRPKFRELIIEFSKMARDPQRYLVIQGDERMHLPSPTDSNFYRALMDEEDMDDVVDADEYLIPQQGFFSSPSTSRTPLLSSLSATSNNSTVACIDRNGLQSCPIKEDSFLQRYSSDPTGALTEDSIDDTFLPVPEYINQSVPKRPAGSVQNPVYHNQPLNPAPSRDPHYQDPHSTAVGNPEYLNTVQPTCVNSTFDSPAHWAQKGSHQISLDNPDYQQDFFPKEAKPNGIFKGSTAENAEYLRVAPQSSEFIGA
T18 sequence (Q99683 whole entry): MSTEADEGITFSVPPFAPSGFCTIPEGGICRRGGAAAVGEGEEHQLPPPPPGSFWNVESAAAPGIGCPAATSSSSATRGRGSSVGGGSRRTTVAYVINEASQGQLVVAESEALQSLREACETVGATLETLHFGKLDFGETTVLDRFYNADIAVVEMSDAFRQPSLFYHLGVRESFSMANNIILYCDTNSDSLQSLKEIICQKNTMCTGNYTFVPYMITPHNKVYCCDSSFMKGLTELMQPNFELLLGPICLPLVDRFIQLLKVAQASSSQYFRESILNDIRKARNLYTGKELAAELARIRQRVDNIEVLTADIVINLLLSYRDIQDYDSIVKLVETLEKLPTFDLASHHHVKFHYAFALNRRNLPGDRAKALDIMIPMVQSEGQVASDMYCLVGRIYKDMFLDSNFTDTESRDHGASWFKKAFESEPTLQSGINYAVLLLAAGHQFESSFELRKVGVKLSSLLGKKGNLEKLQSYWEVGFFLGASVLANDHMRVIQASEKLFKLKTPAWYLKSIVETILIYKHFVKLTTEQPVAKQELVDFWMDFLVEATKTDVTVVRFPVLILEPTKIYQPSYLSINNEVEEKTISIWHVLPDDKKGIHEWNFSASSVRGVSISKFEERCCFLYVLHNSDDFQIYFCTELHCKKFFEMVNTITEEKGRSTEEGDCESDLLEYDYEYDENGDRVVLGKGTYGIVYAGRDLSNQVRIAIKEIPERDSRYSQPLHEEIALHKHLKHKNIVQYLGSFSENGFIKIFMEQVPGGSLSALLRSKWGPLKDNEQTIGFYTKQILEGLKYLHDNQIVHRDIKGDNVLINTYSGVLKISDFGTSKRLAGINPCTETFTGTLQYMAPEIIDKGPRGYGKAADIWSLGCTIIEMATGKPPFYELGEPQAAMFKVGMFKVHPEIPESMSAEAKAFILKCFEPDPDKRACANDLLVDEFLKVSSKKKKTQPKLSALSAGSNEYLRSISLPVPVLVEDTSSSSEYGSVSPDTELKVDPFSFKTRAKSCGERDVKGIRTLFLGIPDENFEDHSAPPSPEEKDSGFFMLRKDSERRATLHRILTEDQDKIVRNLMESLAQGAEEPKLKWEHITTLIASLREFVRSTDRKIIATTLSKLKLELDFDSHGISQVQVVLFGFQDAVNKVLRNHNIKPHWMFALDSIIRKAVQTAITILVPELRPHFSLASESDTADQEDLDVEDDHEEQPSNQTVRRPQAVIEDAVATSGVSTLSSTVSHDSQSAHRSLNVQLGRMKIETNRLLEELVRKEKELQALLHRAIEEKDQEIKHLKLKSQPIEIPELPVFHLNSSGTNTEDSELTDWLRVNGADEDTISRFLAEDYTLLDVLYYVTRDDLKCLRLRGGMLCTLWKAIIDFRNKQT

Compound: NCCCNc1nc2c(Br)c(Br)c(Br)c(Br)c2[nH]1 [Compound 11, N-(3-aminopropyl)-4,5,6,7-tetrabromo-1H-benzo[d]imidazol-2-amine]
- remaining binding at 1 µM (PRKCH): 23%
- remaining binding at 1 µM (CASK): 94%
- % binding (MKK7): 100%
- remaining binding at 1 µM (SLK): 92%
- remaining binding at 1 µM (PIK3CA(E545A)): 96%
- remaining binding at 1 µM (PRKCD): 56%
- remaining binding at 1 µM (MKNK2): 35%
- remaining binding at 1 µM (KIT(L576P)): 83%
- remaining binding at 1 µM (PIK3CB): 100%
- % binding (PIP5K1C): 95%
- remaining binding at 1 µM (CSNK1A1): 35%
- remaining binding at 1 µM (MLCK): 92%
- remaining binding at 1 µM (MEK2): 100%
- remaining binding at 1 µM (PAK3): 91%
- remaining binding at 1 µM (GSK3A): 100%
- remaining binding at 1 µM (NEK5): 100%
- remaining binding at 1 µM (TLK2): 100%
- remaining binding at 1 µM (MAP3K2): 100%
- % binding (ACVR2B): 100%
- remaining binding at 1 µM (SgK110): 100%
- remaining binding at 1 µM (MST1R): 100%
- remaining binding at 1 µM (CAMK2G): 100%
- remaining binding at 1 µM (EPHB3): 91%
- remaining binding at 1 µM [1]: 100%
- remaining binding at 1 µM (AAK1): 97%
- % binding (CSNK1G2): 100%
- remaining binding at 1 µM (ASK1): 100%
- remaining binding at 1 µM (CLK3): 70%
- remaining binding at 1 µM (NEK9): 95%
- % binding (EGFR(L858R)): 96%
- remaining binding at 1 µM (PFTAIRE2): 73%
- % binding (ULK1): 30%
- remaining binding at 1 µM (DCAMKL2): 100%
- remaining binding at 1 µM (MST4): 87%
